{"source": "PubChem BioAssay AID1996", "data": [{"details": "buffer; pH 7.4; 200.0 µM", "units": {"solubility kinetic": "µg/mL"}, "values": [{"smiles": "O=[N+]([O-])c1cccc(C(O)C23CN4CN(CN(C4)C2)C3)c1", "note": "(centres undefined)", "solubility kinetic": "> 43.5"}, {"smiles": "CC(OC(=O)c1ccco1)C(=O)NC1CCCC1", "note": "(centres undefined)", "solubility kinetic": "> 37.7"}, {"smiles": "Cc1ccc2c(c1)N(CC(=O)N1CCCC(C)C1)C(=O)CO2", "note": "(centres undefined)", "solubility kinetic": 45.3}, {"smiles": "COc1ccc2[nH]c(=O)c(CN(C(=O)c3cccnc3)c3cccc(C)c3)cc2c1", "solubility kinetic": 3.9}, {"smiles": "CCN1C(=O)C(O)(CC(=O)c2c(C)coc2C)c2ccccc21", "note": "(centres undefined)", "solubility kinetic": "> 47"}, {"smiles": "Clc1ccc(OCc2noc(-c3ccsc3)n2)c(Cl)c1", "solubility kinetic": "< 0.4"}, {"smiles": "O=C1CC(=O)N(c2cccc(Br)c2)C(=O)N1", "solubility kinetic": 39.2}, {"smiles": "O=c1[nH]c(-c2ccccc2)ncc1Oc1ccccc1", "solubility kinetic": 33.7}, {"smiles": "Cc1cc2oc(=O)c(CC(=O)NCCCO)c(C)c2c2occ(C(C)(C)C)c12", "solubility kinetic": 28}, {"smiles": "Cc1[nH]c2ccccc2c1/C=N/NC(=O)CNC(=O)c1ccco1", "solubility kinetic": "> 48.7"}, {"smiles": "COc1cc2c(cc1OC)-c1cc(Nc3ccc(C)cc3)nc(=O)n1CC2", "solubility kinetic": 1.9}, {"smiles": "O=C1c2ccc([N+](=O)[O-])cc2C(=O)N1c1ccc(Cl)cn1", "solubility kinetic": "> 45.5"}, {"smiles": "COC(=O)c1sc(NC(=O)c2c(F)cccc2F)c(C#N)c1C", "solubility kinetic": 7.2}, {"smiles": "COc1ccc(S(=O)(=O)N2CCN(CC(=O)NC(Cc3ccccc3)C(C)=O)CC2)cc1", "note": "(centres undefined)", "solubility kinetic": "> 68.9"}, {"smiles": "Cc1[nH]c2ccccc2c1C(=O)CN1CCCC(C)C1", "note": "(centres undefined)", "solubility kinetic": 40.5}, {"smiles": "NC(=O)c1cc([N+](=O)[O-])ccc1N1CCN(Cc2ccccc2)CC1", "solubility kinetic": 23}, {"smiles": "O=C(c1cc(-c2ccc(O)cc2)on1)N1CCCCCC1", "solubility kinetic": "> 42.9"}, {"smiles": "CN(CC(=O)Nc1c(Cl)cccc1Cl)C(=O)Cc1ccsc1", "solubility kinetic": "> 53.6"}, {"smiles": "O=C(c1cc(F)c(F)c(F)c1F)N1CCN(C(=O)C2CCCO2)CC1", "note": "(centres undefined)", "solubility kinetic": "> 54"}, {"smiles": "CCCCc1ccc(S(=O)(=O)NC2CCS(=O)(=O)C2)cc1", "note": "(centres undefined)", "solubility kinetic": 47.9}, {"smiles": "O=C(NCc1cccnc1)c1ccccc1NS(=O)(=O)c1ccc(Br)cc1", "solubility kinetic": "> 66.9"}, {"smiles": "Clc1ccc(C2Nc3cccc4cccc(c34)N2)cc1Cl", "solubility kinetic": 0.4}, {"smiles": "COc1ccc(OC)c(C(=O)/C=C/c2cccnc2)c1", "solubility kinetic": "> 40.4"}, {"smiles": "CC(c1ccccc1)n1c(CCCO)nc2ccccc21", "note": "(centres undefined)", "solubility kinetic": "> 42.1"}, {"smiles": "CCOc1ccccc1NC(=O)c1cccc2ccccc12", "solubility kinetic": 7.7}, {"smiles": "O=C(Nc1ccccc1)c1ccc(OC(=O)c2ccccc2)cc1", "solubility kinetic": "< 0.7"}, {"smiles": "CCOC(=O)c1c(N)sc(N)c1C(=O)OCC", "solubility kinetic": 29.9}, {"smiles": "Cc1nc2sc(C(=O)Nc3ccccc3)c(N)c2c(C)c1[N+](=O)[O-]", "solubility kinetic": 0.8}, {"smiles": "NC(=O)CN1CCN(Cc2ccc3c(c2)OCO3)CC1", "solubility kinetic": "> 41.6"}, {"smiles": "CCC(=O)c1ccc(N2CCN(C(=O)c3ccc(F)cc3)CC2)c(F)c1", "solubility kinetic": "> 53.8"}, {"smiles": "N#CC1CN(Cc2ccccc2)CN(Cc2ccccc2)C1", "solubility kinetic": 32.9}, {"smiles": "CC(=O)NNc1cc(C)nc(N)n1", "solubility kinetic": "> 27.2"}, {"smiles": "CNC(=O)c1ccc(Nc2nc(-c3ccccc3)nc3ccccc23)cc1", "solubility kinetic": 14.9}, {"smiles": "C=CCN1C(=O)/C(=C/c2cc(C)n(-c3cccnc3)c2C)C(=O)NC1=S", "solubility kinetic": 12.9}, {"smiles": "CN(C)S(=O)(=O)c1ccc(C(=O)OCCc2ccccc2)cc1", "solubility kinetic": 0.9}, {"smiles": "Cc1cccc(/C(N)=N/OC(=O)c2cccc3ccccc23)c1", "solubility kinetic": 1.1}, {"smiles": "Clc1ccc(Oc2ccccc2)c2ncccc12", "solubility kinetic": 10.7}, {"smiles": "CN(Cc1c(F)cccc1Cl)S(=O)(=O)c1cccs1", "solubility kinetic": "< 0.7"}, {"smiles": "CC(C)COc1ccc(C(=S)N2CCCC2)cc1", "solubility kinetic": 21.2}, {"smiles": "COc1ccc(C(=O)/C=C/c2ccc(N(C)C)cc2)c(OC)c1", "solubility kinetic": 3.2}, {"smiles": "CC(=O)c1ccc(N2CCN(C(=S)NCc3ccco3)CC2)cc1", "solubility kinetic": 45.4}, {"smiles": "Cc1ccc(Sc2cc(C)nc(-c3ccccn3)n2)cc1", "solubility kinetic": 36.8}, {"smiles": "COc1ccc(CN(C)C(=O)COC(=O)c2cnc(Cl)c(Cl)c2)cc1", "solubility kinetic": 53.1}, {"smiles": "O=C(COC(=O)c1c(Cl)cccc1Cl)NCc1cccs1", "solubility kinetic": "> 51.6"}, {"smiles": "COc1ccccc1OCCn1cc(C(=O)C(C)C)c2ccccc21", "solubility kinetic": "< 0.7"}, {"smiles": "COc1cc2ncnc(NCc3ccco3)c2cc1OC", "solubility kinetic": 38.9}, {"smiles": "Cc1ccc(NS(=O)(=O)c2ccc(Cl)s2)nc1", "solubility kinetic": 33.6}, {"smiles": "CC(=O)ONC(=Nc1ccccc1)c1nonc1N", "solubility kinetic": "> 39.2"}, {"smiles": "Cc1c(C(=O)NCCCn2ccnc2)oc2ccccc12", "solubility kinetic": 34.1}, {"smiles": "CCn1c(C(=O)NC2CCC(C)CC2)cc2sccc21", "note": "(centres undefined)", "solubility kinetic": 0.7}, {"smiles": "Cc1ccc(S(=O)(=O)N2CCOCC2)cc1C(=O)NC(C)CCc1ccccc1", "note": "(centres undefined)", "solubility kinetic": 25.1}, {"smiles": "CS(=O)(=O)N(CC(=O)N1CCCC1)Cc1ccc(F)cc1", "solubility kinetic": "> 47.2"}, {"smiles": "COC(=O)C1CSC(c2ccc(Cl)cc2)N1C(=O)c1ccccc1", "note": "(centres undefined)", "solubility kinetic": 34.1}, {"smiles": "Cc1c(-c2nc3ccccc3[nH]2)cnn1C", "solubility kinetic": "> 31.8"}, {"smiles": "Fc1cc(Cl)c(OCc2noc(-c3ccsc3)n2)c(Cl)c1", "solubility kinetic": 0.5}, {"smiles": "O=C(O)c1ccccc1C(=O)N1CCN(c2ncccn2)CC1", "solubility kinetic": "> 46.8"}, {"smiles": "CC(C)(CNCc1ccccc1)NS(=O)(=O)c1ccc(Cl)cc1", "solubility kinetic": "> 52.9"}, {"smiles": "Cc1ccc(NC(=O)CN(C)C(=O)CSc2ccccc2F)cc1", "solubility kinetic": 5.2}, {"smiles": "COc1ccccc1-c1nc(C#N)c(NCCCn2ccnc2)o1", "solubility kinetic": "> 48.5"}]}]}
